Like-named read-outs stand apart in the source and are kept apart here. Marks after values point to notes of the source that are not given here.

Experiment [1] has as its system T. cruzi epimastigotes, Tulahuen 2 strain (genotype TcVI). Put plainly: In vitro anti-T. cruzi activity, growth inhibition of epimastigotes. Format: cell-based, Trypanosoma cruzi. The note with it: for IC50: Trypanosoma cruzi, TULAHUEN; for Trypanocidal activity on T. cruzi in words: molecular stripping, epimastigotes. On the procedure: For the in vitro anti-T. cruzi activity, we used epimastigotes of the Tulahuen 2 strain (genotype TcVI) grown in an axenic milieu (BHI-Tryptose). Cells from a 5–7-day-old culture were inoculated in fresh culture milieu to give an initial concentration of 1.00 × 10^6 cells/mL. The absorbance at 600 nm of the cells in culture was measured every day. At Day 5, the milieu was inoculated with different quantities of the compounds from a stock solution in DMSO (DMSO concentration in the culture milieu never exceeded 0.4%). The control was made in the presence of 0.4% DMSO and in the absence of compounds. Each concentration of compound was evaluated in duplicate. At Day 5, the absorbance of the culture was measured and related to the control. […] Each antiproliferative experiment was done in duplicate, and each concentration was tested in triplicate.

Experiment [2] has as its system J774.1 murine macrophages. The note with it: J774.1; read-out: IC50 ± SD Murine Macrophages; cited from earlier work.
The subject of the next experiment is NCTC929 fibroblasts. Kind of experiment: Nonspecific cytotoxicity on fibroblasts, resazurin. It counts as cell-based. Conditions: NCTC-929, 24 h; read-out: IC50 ± SD Fibroblast NCTC929. On the procedure: To establish the selectivity of the compounds against the parasites, nonspecific cytotoxicity against mammalian cells, using J774.1 murine macrophages and fibroblast NCTC929, was studied for the most relevant derivatives. The selectivity indexes were calculated as the ratio between cytotoxicity for mammalian cells and the anti-parasitic activity (Table 2).
NCTC-Clone 929 were grown in minimal essential medium (Sigma) supplemented with 10% heat-inactivated FBS, penicillin G (100 U/mL) and streptomycin (100 µg/mL). Cell cultures were maintained at 37 °C in a humidified 5% CO2 atmosphere. The procedure for cell viability measurement was evaluated with resazurin by a colorimetric method. The cells were plated in 96 microtiter plates at 3.00 × 10^4 cells/well in 100 µL growth medium. The cells were grown overnight at 37 °C, 5% CO2. Thereafter, the medium was removed, and the compounds were added to 200 µL of medium for 24 h. After incubation, 20 µL of a 2 mM resazurin solution were added to each well. The plates were incubated for 3 h to allow optimal oxidation-reduction. The reduction of resazurin was determined by dual wavelength absorbance measurement at 490 and 595 nm. The background was subtracted. Each concentration was assayed three times. Medium and drug controls were used in each test as blanks.

Experiment [3] concerns T. cruzi epimastigotes, Tulahuen 2 strain (genotype TcVI). Conditions: cited from earlier work; for SI J774.1/ T. cruzi: ratio IC50 mammalian cell / IC50 parasite (epimastigotes); for IC50: read-out: IC50 ± SD Epimastigotes T. cruzi.
Experiment [4] deals with L. infantum promastigotes. Kind of experiment: Leishmanicidal activity on promastigotes, resazurin. Format: cell-based, Leishmania infantum. Conditions: for IC50: 48 h, read-out: IC50 ± SD Promastigotes L. infantum; for SI NCTC/ L. infantum: ratio IC50 mammalian cell / IC50 parasite (promastigotes). An excerpt:
(§1) We initially selected compounds previously reported to have anti-T. cruzi activity from our chemical library to evaluate their leishmanicidal activity. […]. To evaluate their activity in Leishmania spp., we performed a phenotypic screening using the promastigote form of L. infantum (MHOM/FR/91/LEM-2259) and L. braziliensis ([…]) (Table 1A for the thiazolidenehydrazine derivate and Table 1B for the arylideneketones family).
(§2) A culture of L. braziliensis (MHOM/BR/75/M2904) and L. infantum (MHOM/FR/91/LEM2259V) was obtained from the Facultad de Farmacia (Universidad Complutense, Madrid, Spain). The maintenance of the strains, the form of cultivation and the isolation of the shape of the promastigote were performed following the procedures described by Roldos et al.. The promastigotes were grown at 22 °C in Schneider’s Drosophila medium supplemented with 20% FBS. The assay was performed using a modification of a previous method. Promastigotes (2 × 10^6 parasites/well) were cultivated in 96-well plastic plates. Compounds were dissolved in dimethylsulfoxide (DMSO). Different dilutions of the compounds with a final volume up to 200 µL were added. After 48 h at 26 °C, 20 µL of a 2 mM resazurin solution were added, and the oxidation-reduction was quantified at 570 and 600 nm. The solution of resazurin was prepared at 2.5 mM in phosphate buffered solution (PBS), pH 7.4, and filtered through 0.22-µm membranes prior to use. All tests were carried out in triplicate. Resazurin sodium salt was obtained from Sigma-Aldrich (St. Louis, MO, USA) and stored at 4 °C protected from light. The efficacy of each compound was estimated by calculating the IC50 values. Each antiproliferative experiment was done in duplicate, and each concentration was tested in triplicate.

The subject of experiment [5] is L. braziliensis promastigotes. Described as above. It counts as cell-based, Leishmania braziliensis. The note with it: for IC50: 48 h, read-out: IC50 ± SD Promastigotes L. braziliensis; for SI NCTC/ L. braziliensis: ratio IC50 mammalian cell / IC50 parasite (promastigotes).
Excerpt: as §1, §2

Where [6] appears, read: Figure 4, molecular stripping of HIT1, read-out: Effect of structural change on trypanocidal activity (emoticon code).
[7] abbreviates: Tulahuen 2 strain, read-out: IC50 ± SD Epimastigotes T. cruzi.

Turning to `C=CCn1c(C(=O)CNCc2ccccc2)cs/c1=N/N=C\C=C\c1ccco1` [GATk4, 1-((Z)-3-allyl-2-((E)-((E)-3-(furan-2-yl)allylidene)hydrazono)-2,3-dihydrothiazol-4-yl)-2-(benzylamino)ethanone], the IC50 in experiment [1] (setting [6]) and in experiment [1] (setting [7]) was above 25 µM in each case.
`C=CCn1c(C(=O)CN2CCSCC2)cs/c1=N/N=C\C=C\c1ccco1` [GATk2, 1-((Z)-3-allyl-2-((E)-((E)-3-(furan-2-yl)allylidene)hydrazono)-2,3-dihydrothiazol-4-yl)-2-thiomorpholinoethanone]: the IC50 in experiment [1] (setting [7]) came to 8 ± 1 µM.
Turning to `O=C1/C(=C/C=C/c2ccco2)CC/C1=C\C=C\c1ccco1` [EA161], the IC50 was 19 ± 2 µM in experiment [2]; 756 ± 17 µM in the experiment with NCTC929 fibroblasts; 5.4 ± 1.6 µM in experiment [3]; 16 ± 4 µM in experiment [4] (Leishmania infantum); 18 ± 4 µM in experiment [5] (Leishmania braziliensis). The “SI J774.1/ T. cruzi” value in experiment [3] is 4 ^c. Besides, the “SI NCTC/ L. infantum” value in experiment [4] was 47. The “SI NCTC/ L. braziliensis” value in experiment [5] came to 42.
For `Clc1ccc(-c2csc(/N=C/C=C/c3ccco3)n2)cc1` [GAT2112, (E)-4-(4-Chlorophenyl)-N-((E)-3-(furan-2-yl)allylidene)thiazol-2-amine], the “Trypanocidal activity on T. cruzi in words” value (“Trypanocidal activity” below) in experiment [1] is recorded as “the activity was lost”.
As for `CN1C/C(=C\C=C\c2ccco2)C(=O)/C(=C/C=C/c2ccco2)C1` [Pg150, (3E,5E)-3,5-Bis((E)-3-(furan-2-yl)allylidene)-1-methylpiperidin-4-one], the IC50 in experiment [1] (setting [7]), in experiment [4] (Leishmania infantum) and in experiment [5] (Leishmania braziliensis) was above 25 µM each time. In addition, in experiment [1], the “Trypanocidal activity” value was “the activity was completely lost”.
With `Cc1ccc(/C=C/C=N/N2CCN(CC=Cc3ccccc3)CC2)o1` [GAT0413, (E)-4-cinnamyl-N-((E)-3-(5-methylfuran-2-yl)allylidene)piperazin-1-amine], the IC50 in experiment [1] (setting [6]) was 5 to 25 µM; in experiment [1] (setting [7]), 12 ± 2 µM; in experiment [4] (Leishmania infantum) it was above 25 µM; in experiment [5] (Leishmania braziliensis), above 25 µM. Also, the “Trypanocidal activity” value in experiment [1] was “the activity was restored”.
Turning to `O=C(/C=C/C=C/c1cccs1)/C=C/C=C/c1cccs1` [EA141], the IC50 in experiment [2] is 10 ± 2 µM; in the experiment with NCTC929 fibroblasts it was 1700 ± 40 µM; in experiment [3], 12.6 ± 1.4 µM; in experiment [4] (Leishmania infantum), 19 ± 5 µM; in experiment [5] (Leishmania braziliensis), 36 ± 3 µM. In addition, the “SI J774.1/ T. cruzi” value in experiment [3] was 1 ^c. In addition, in experiment [4], the “SI NCTC/ L. infantum” value was found to be 90. In addition, the “SI NCTC/ L. braziliensis” value in experiment [5] was 47.
As for `Nc1nc(-c2ccc(Cl)cc2)cs1` [GAT2012, 4(4-Chlorophenyl)-thiazol-2(3H)-ylidene-2-amine], the IC50 in experiment [1] (setting [7]) was above 25 µM. Further, the “Trypanocidal activity” value in experiment [1] was “lack of activity”.
`C=CCn1c(C(=O)NN2CCN(C/C=C/c3ccccc3)CC2)cs\c1=N/N=C/C=C/c1ccco1` [GAT1613]: the IC50 in experiment [1] (setting [7]) is 20 ± 2 µM. For the same compound, in experiment [1], the “Trypanocidal activity” value was “the activity was lost”.
On to `O=C1/C(=C/c2ccccc2)CCC/C1=C\c1ccccc1` [EA142], for which the IC50 is 5.1 ± 0.3 µM in experiment [3], 9.6 ± 0.9 µM in experiment [4] (Leishmania infantum) and 4.2 ± 0.7 µM in experiment [5] (Leishmania braziliensis).
For the compound `O=C(/C=C/c1ccco1)/C=C/c1ccco1` [EA134], the IC50 in experiment [2] is 115 ± 6 µM; in the experiment with NCTC929 fibroblasts, 114 ± 2 µM; in experiment [3], 24 ± 2 µM; in experiment [4] (Leishmania infantum), 6 ± 2 µM; in experiment [5] (Leishmania braziliensis), 10 ± 6 µM. The “SI J774.1/ T. cruzi” value in experiment [3] is listed as 5 ^c. For the same compound, the “SI NCTC/ L. infantum” value in experiment [4] is recorded as 19. Also, the “SI NCTC/ L. braziliensis” value in experiment [5] was determined as 11.
`O=C1/C(=C/C=C/c2ccccc2)CCC/C1=C\C=C\c1ccccc1` [EA143]: the IC50 was 14 ± 3 µM in experiment [1] (setting [7]), above 25 µM in experiment [4] (Leishmania infantum) and above 25 µM in experiment [5] (Leishmania braziliensis).
As for `O=C1/C(=C/C=C/c2cccs2)CC/C1=C\C=C\c1cccs1` [EA160], the IC50 was 15 ± 1 µM in experiment [2]; 4909 ± 36 µM in the experiment on NCTC929 fibroblasts; 0.04 ± 0.01 µM in experiment [3]; 11 ± 3 µM in experiment [4] (Leishmania infantum); above 100 µM in experiment [5] (Leishmania braziliensis). The “SI J774.1/ T. cruzi” value in experiment [3] is reported as 375 ^c. Also, the “SI NCTC/ L. infantum” value in experiment [4] came to 446.
As to `C=CCn1c(C(=O)CN2CCN(c3ccccc3)CC2)csc1=NN=CC=Cc1ccco1` [GATk1, (2E,2Z)-2-(2-((E)-3-(furan-2-yl)propeniliden)hydrazono)-(3-allyl-2,3-dihydrothiazol-4-yl)-2-(4-phenylpiperazin-1-yl)ethanone], the IC50 in experiment [1] (setting [6]) and in experiment [1] (setting [7]) was above 25 µM throughout.
For `C=CCn1c(-c2ccc(Cl)cc2)cs\c1=N/N=C/C=C/C=C/c1ccco1` [GATA2], the IC50 in experiment [1] (setting [7]) was 10 ± 2 µM.
As for `O=C(C=Cc1ccco1)N1CCN(CC=Cc2ccccc2)CC1` [GAT0804], the IC50 in experiment [1] (setting [6]) was above 25 µM.
As for `O=C1/C(=C/c2ccco2)CCC/C1=C\c1ccco1` [EA154], the IC50 in experiment [1] (setting [7]) was 7 ± 2 µM; in experiment [4] (Leishmania infantum), above 25 µM; in experiment [5] (Leishmania braziliensis) it was above 25 µM.
`O=C1/C(=C/C=C/c2cccs2)CCC/C1=C\C=C\c1cccs1` [EA156]: the IC50 is 20 ± 1 µM in experiment [2]; 1980 ± 20 µM in the experiment on NCTC929 fibroblasts; 0.6 ± 0.2 µM in experiment [3]; 16 ± 3 µM in experiment [4] (Leishmania infantum); above 100 µM in experiment [5] (Leishmania braziliensis). The “SI J774.1/ T. cruzi” value in experiment [3] is recorded as 33 ^c. Besides, the “SI NCTC/ L. infantum” value in experiment [4] is 124.
On to `C=CCn1c(C(=O)CN2CCN(Cc3ccccc3)CC2)cs/c1=N/N=C\C=C\c1ccco1` [GATk5, 1-((Z)-3-allyl-2-((E)-((E)-3-(furan-2-yl)allylidene)hydrazono)-2,3-dihydrothiazol-4-yl)-2-(4-benzylpiperazin-1-yl)ethanone], for which the IC50 in experiment [1] (setting [6]) and in experiment [1] (setting [7]) was above 25 µM throughout.
In the case of `O=C(/C=C/C=C/C=C/c1cccs1)/C=C/C=C/C=C/c1cccs1` [EA152], the IC50 in experiment [1] (setting [7]) is above 25 µM; in experiment [4] (Leishmania infantum) it was 30 ± 8 µM; in experiment [5] (Leishmania braziliensis), above 100 µM.
In the case of `C=CCn1c(C(=O)N2CCSCC2)csc1=NN=CC=Cc1ccco1` [GATjm18], the IC50 in experiment [1] (setting [7]) worked out at 2.7 ± 0.5 µM. Also, the “Trypanocidal activity” value in experiment [1] was “the activity was maintained”.
`C=CCn1c(-c2ccc(Br)cc2)cs\c1=N/N=C/C(C)=C/c1ccco1` [GAT2015]: the IC50 in experiment [4] and in experiment [5] was above 25 µM each time.
As to `O=C(/C=C/C=C/c1ccccc1)/C=C/C=C/c1ccccc1` [EA139], the IC50 in experiment [1] (setting [7]) was 11 ± 1 µM; in experiment [4] (Leishmania infantum), above 25 µM; in experiment [5] (Leishmania braziliensis), above 25 µM.

The values above are taken from article PMC6154605, “Multi-Anti-Parasitic Activity of Arylidene Ketones and Thiazolidene Hydrazines against Trypanosoma cruzi and Leishmania spp” (Molecules : A Journal of Synthetic Chemistry and Natural …, 2017).
